Source: paper PMC6076408, “Differential modulation of human GABAC-ρ1 receptor by sulfur-containing compounds structurally related to taurine” (BMC Neuroscience, 2018)

Tests used:
Assay type in all cases: cell-based
human GABAC-ρ1 receptor [1] = target: T1, human GABAC-ρ1 receptor (Homo sapiens, UniProt P24046); experiment: Two-microelectrode voltage-clamp: currents activated by GABA or SCC-tau in oocytes expressing GABAC-ρ1R; conditions: for Hill coefficient (nH) / EC50: agonist alone; for Hill coefficient (nH): dose-response relationship; for activation time of the currents (τact) / deactivation time (τdeac): currents activated by GABA, Hypo or Homo; for EC50: Xenopus laevis oocytes clamped at −60 mV
T1 construct: expressed in transfected cells; host or cells: Xenopus laevis oocytes (mRNA injection)
Description: (§1) All the animals were handled in accordance with guidelines of the National Institutes of Health Guide for Care and Use of Laboratory Animals and with the approval of the Institutional Animal Care and Use Committee of the National University of Mexico. We used Ethyl 3-aminobenzoate methanesulfonate (MS-222) at 0.17% for 30 min, to anesthetize the Xenopus laevis frogs. The oocytes were manually removed and enzymatically defolliculated at room temperature using collagenase type I (0.3 μg/μl) for 45 min. Later, oocytes were kept in Barth’s medium (in mM): 88, NaCl; 1, KCl; 0.33, […]; 0.41, CaCl2; 0.82, MgSO4; 2.4, NaHCO3; 5, HEPES; pH 7.4 and 0.1 mg/ml gentamicin sulfate. After 24 h, 0.5 μg/μl of human GABAC-ρ1R mRNA was injected in vegetal hemisphere of the oocyte, and electrophysiological recordings were obtained 2–3 days after injection.
(§2) Oocytes were placed in a chamber, with a volume of 500 μl, and impaled with two microelectrodes previously filled with 3 M KCl (0.5–2.5 MΩ) and clamped at − 60 mV. […] All recordings were done at 20–23 °C in a chamber continuously perfused at 5–10 ml/min of Ringer solution (in mM): 115, NaCl; 2, KCl; 1.8, CaCl2; 5, HEPES, pH 7.4. All drugs were purchased from SIGMA-ALDRICH (San Louis Missouri, USA). […] The pH of all solutions was adjusted to 7.4.
Results are reported as mean ± S.E. of the values obtained from several cells, each value being the average of measurements in different cells. Data from each experiment were collected from at least seven oocytes. Agonist concentration–response curves were constructed by measuring the maximum response evoked by each agonist concentration. […] The half-inhibitory concentration (IC50) of Homo was estimated by fitting the following equation: A=Amax/(1+10^[[agonist]-logEC50) . Differences among groups were statistically analyzed by ANOVA and Tukey–Kramer post-test, and were considered significant when P < 0.05. […] Differences between groups were statistically analyzed by ANOVA and a Tukey–Kramer post-test, and were considered significant at the level P < 0.05.

human GABAC-ρ1 receptor [2] = target: T1, human GABAC-ρ1 receptor; experiment: Voltage-clamp: modulation of GABA-induced currents by co-applied SCC-tau; conditions: for IC50: read-out: IC50 (decrease of GABA-activated current); for EC50: EC50 (potentiation of GABA current)
Description: as §1
as §2, with “Membrane currents elicited by GABA and SCC-tau were recorded using the two-microelectrode voltage-clamp technique. Oocytes” for “Oocytes”
(§3) Results are reported as mean ± S.E. of the values obtained from several cells, each value being the average of measurements in different cells. Data from each experiment were collected from at least seven oocytes. Agonist concentration–response curves were constructed by measuring the maximum response evoked by each agonist concentration. […] The half-inhibitory concentration (IC50) of Homo was estimated by fitting the following equation: A=Amax/(1+10^[[agonist]-logEC50) . Differences among groups were statistically analyzed by ANOVA and Tukey–Kramer post-test, and were considered significant when P < 0.05. Control responses to GABA were obtained before and after each drug application to account for possible shifts in the amplitude of the control current. To determine the time constants for the activation (τact) and deactivation (τdeac) of GABA-, Homo- and Hypo-currents responses, a decay function of the form: I(τ) = exp(− t/τ d) + C, where I is the current and t is time, was fit to the experimental data (Origin 6.0 software; Northampton, MA). Differences between groups were statistically analyzed by ANOVA and a Tukey–Kramer post-test, and were considered significant at the level P < 0.05.

human GABAC-ρ1 receptor [3] = target: T1, human GABAC-ρ1 receptor; experiment: Voltage-clamp: inhibition of GABA- and SCC-tau-induced currents by TPMPA and picrotoxin
Description: as §1
as §2, with “Membrane currents elicited by GABA and SCC-tau were recorded using the two-microelectrode voltage-clamp technique. Oocytes” for “Oocytes”
as §3

[4] = receptor activated by 3 µM GABA
[5] = receptor activated by 70 µM Homo
[6] = receptor activated by 3 mM Hypo

T1 sequence (P24046 22-479): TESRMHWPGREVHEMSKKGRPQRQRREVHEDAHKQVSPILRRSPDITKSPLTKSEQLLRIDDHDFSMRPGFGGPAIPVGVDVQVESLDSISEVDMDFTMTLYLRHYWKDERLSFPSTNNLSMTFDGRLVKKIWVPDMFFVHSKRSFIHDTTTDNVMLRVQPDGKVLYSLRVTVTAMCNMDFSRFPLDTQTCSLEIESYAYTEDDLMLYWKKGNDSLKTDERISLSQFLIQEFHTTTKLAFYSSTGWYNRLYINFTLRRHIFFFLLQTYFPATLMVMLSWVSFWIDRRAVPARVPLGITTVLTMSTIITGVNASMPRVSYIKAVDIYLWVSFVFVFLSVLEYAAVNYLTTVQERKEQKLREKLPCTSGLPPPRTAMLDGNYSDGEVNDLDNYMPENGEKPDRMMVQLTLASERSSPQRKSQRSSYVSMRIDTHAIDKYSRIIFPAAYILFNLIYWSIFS

Hill coefficient (nH) (human GABAC-ρ1 receptor [1])	activation time of the currents (τact) (human GABAC-ρ1 receptor [1])	deactivation time (τdeac) (human GABAC-ρ1 receptor [1])	Compound	EC50 (human GABAC-ρ1 receptor [1])	IC50 (human GABAC-ρ1 receptor [3]; [4])	IC50 (human GABAC-ρ1 receptor [3]; [5])	IC50 (human GABAC-ρ1 receptor [3]; [6])	also measured
1.5	1 ± 0.2 min	1.7 ± 0.5 min	NCCCC(=O)O [GABA, γ-aminobutyric acid]	–	–	–	–	–
1.0	1.8 ± 0.2 min	6.7 ± 2.2 min	NCCCS(=O)(=O)O [Homo, 3-Aminopropane-1-sulfonic acid]	70 ± 1.1 µM	–	–	–	IC50 (human GABAC-ρ1 receptor [2]; co-applied with 1.5 µM GABA): 40 ± 1 µM; IC50 (human GABAC-ρ1 receptor [2]; co-applied with 3 µM GABA): 90 ± 1.5 µM; IC50 (human GABAC-ρ1 receptor [2]; co-applied with 6 µM GABA): 410 ± 2.9 µM
–	–	–	O=S(=O)(O)CCO [IA, 2-hydroxyethanesulfonic acid]	–	–	–	–	activation of current (effect on receptor) (human GABAC-ρ1 receptor [1]; compound perfused alone at the concentrations tested): did not show any affect; effect on GABA-induced currents (human GABAC-ρ1 receptor [2]; co-application with GABA, data not shown): did not observe any effect
–	–	–	CP(=O)(O)C1=CCNCC1 [TPMPA, Methyl(1,2,5,6-tetrahydropyridine-4-yl) phosphinic acid]	–	1.2 ± 0.1 µM	1.4 ± 0.1 µM	2 ± 0.2 µM	–
–	–	–	picrotoxin	–	100 ± 0.1 µM	105 ± 0.3 µM	100 ± 0.8 µM	–

Compound	Hill coefficient (nH) (human GABAC-ρ1 receptor [1])	activation time of the currents (τact) (human GABAC-ρ1 receptor [1])	deactivation time (τdeac) (human GABAC-ρ1 receptor [1])	EC50 (human GABAC-ρ1 receptor [1])	IC50 (human GABAC-ρ1 receptor [3]; [4])	IC50 (human GABAC-ρ1 receptor [3]; [5])	IC50 (human GABAC-ρ1 receptor [3]; [6])	also measured
NCCS(=O)O [Hypo, 2-Aminoethanesulfinic acid]	2.2	1.5 ± 0.1 min	3.4 ± 1.1 min	3000 ± 1500 µM	–	–	–	EC50 (human GABAC-ρ1 receptor [2]; co-applied with 1.5 µM GABA): 87 ± 1.5 µM; EC50 (human GABAC-ρ1 receptor [2]; co-applied with 3 µM GABA): 170 ± 1.7 µM; EC50 (human GABAC-ρ1 receptor [2]; co-applied with 6 µM GABA): 480 ± 2.1 µM
